According to publication PMC6689897, “Drugging an undruggable pocket on KRAS” (Proceedings of the National Academy of Sciences of the …, 2019):

Legend:
[1] = target: SOScat-catalyzed nucleotide exchange on RAS (Homo sapiens, UniProt P01116); assay: SOS1 nucleotide exchange assay (BODIPY-GDP)
GCP-KRASG12D = GCP-KRASG12D (Homo sapiens, UniProt P01116, G12D); assay: KD(HSQC) NMR; type: binding
Method: 80 difference spectrum. Mixtures of four fragments (each at 250 µM) were incubated in 25
82 a mixture of GCP-KRASG12D and GDP-KRASG12V (each 4 µM). Binders were identified
83 by comparing pre-recorded reference spectra with the STD difference spectrum.
84 Deconvolution and confirmation of primary FBS hits obtained from STD-NMR and
85 MST was performed using 2D 1H/15N TROSY NMR experiments(2) collected on a
86 Bruker Avance III 600 MHz spectrometer equipped with a 5 mm z-gradient TCI cryo-
87 probe. Samples were prepared directly before data acquisition using a Tecan Freedom
88 Evo pipetting system and delivered by a Bruker Sample Rail to the magnet. Each sample
89 contained either 50 µM 15N labeled GDP-KRASG12D or GCP-KRASG12D in 25 mM Tris-
90 d11, 100 mM NaCl, 2 mM MgCl2, 0.5 mM TCEP pH 7.4 and 8% (v/v) D2O. Proteins […]
92 d6DMSO. Spectra were recorded with 32 transients and 64 data points in the indirect […]
100 support compound optimization. 1H/15N SoFast HMQC experiments(3) were recorded in […]
102 recorded on a Avance III 700MHz spectrometer equipped with a cryogenically cooled […]
107 DMSO. KDs were calculated from the differences in chemical shift induced by t he small […]
109 dimension were calculated according to the following equation: […]
120 (MicroCalTM, LLC Northampton, MA). Protein solutions were measured in 20 mM […]
125 were analyzed with the MicroCal PEAQ-ITC analysis software package. […]

Sequence of SOScat-catalyzed nucleotide exchange on RAS (P01116 1-169 isoform P01116-2 limits assumed): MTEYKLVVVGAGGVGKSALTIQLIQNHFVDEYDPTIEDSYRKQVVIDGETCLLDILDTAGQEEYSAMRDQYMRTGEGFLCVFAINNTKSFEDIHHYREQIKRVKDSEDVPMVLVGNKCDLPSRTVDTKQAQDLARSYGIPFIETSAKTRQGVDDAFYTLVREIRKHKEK
Sequence of GCP-KRASG12D (P01116 1-169 isoform P01116-2 G12D): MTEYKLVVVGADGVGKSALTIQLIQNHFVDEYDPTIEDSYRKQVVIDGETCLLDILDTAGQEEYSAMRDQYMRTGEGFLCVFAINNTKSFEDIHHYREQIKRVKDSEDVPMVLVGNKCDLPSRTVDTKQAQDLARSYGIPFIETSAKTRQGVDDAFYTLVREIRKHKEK

Row | Compound | SOScat-mediated exchange ([1]; highest concentrations) | SOS1-catalyzed nucleotide exchange ([1]; several concentrations) | Kd (GCP-KRASG12D) [µM]
1 | Cn1cnc(Cn2ccc3ccc(CNCc4[nH]c5ccccc5c4[C@H]4NC(=O)c5ccc(O)cc54)cc32)c1 [Compound 1] | full inhibition | inhibits the rate of nucleotide exchange in a dose-dependent manner | 
2 | CN(C)Cc1[nH]c2ccccc2c1[C@H]1NC(=O)c2ccc(O)cc21 [Compound 18] |  |  | 17
